Laboratory results as given in paper PMC7603469, “The biologically functional identification of a novel TIM3-binding peptide P26 in vitro and in vivo” (Cancer Chemotherapy and Pharmacology, 2020).
Where a SMILES comes first, the peptide text is derived from it.

Key:
MC38-hPD-L1 tumor = assay: Tumor growth assay, MC38-hPD-L1 tumor-bearing B-hTIM-3 humanized mice; type: in vivo, mouse; conditions: P26 5 mg/kg/d, ATE 10 mg/kg/4d, n = 7
Procedure: C57BL/6 mice transgenic for B-hHAVCR2 (TIM3) (Biocytogen, Beijing, China) were used to evaluate the anti-tumor activity of P26 in vivo. After 1 week of adaptive feeding, 6-week-old female mice were inoculated with 0.1 mL of MC38-hPD-L1 cells (1 × 10^6 cells) by subcutaneous injection on the right scapula followed by the measurements of tumor volume and body weight. When the average tumor volume reached about 80 mm^3, mice were randomly divided into […] groups and administrated with different drugs: (A) PBS (control), (B) ATE (PD-L1 inhibitor Atezolizumab, 10 mg/kg/4d, as the positive group), (C) P26 (5 mg/kg/d), and (D) P26 (5 mg/kg/d) plus ATE (10 mg/kg/4d). The weight and tumor volume of the mice were measured twice a week. When the body weight loss (% BWL) was above 20%, the drug was discontinued, and then, ethically acceptable execution to mice was adopted upon the failure of weight loss recovery in 72 h. The weight and volume of tumors were then analyzed.

TIM3 = molecular target: T1, TIM3 (Mus musculus, UniProt Q8VIM0); assay: SPR binding, TIM3 immobilized on chip; conditions: TIM3 50 μg/mL immobilized on nanogold sensor chip (EDC/NHS), flow rate 20 μL/min for about 7 min, read-out: affinity constant (KD)
T1 construct: purchased Chimerigen CHI-MF-210T3-C050
T1 sequence (Q8VIM0 20-193 limits assumed): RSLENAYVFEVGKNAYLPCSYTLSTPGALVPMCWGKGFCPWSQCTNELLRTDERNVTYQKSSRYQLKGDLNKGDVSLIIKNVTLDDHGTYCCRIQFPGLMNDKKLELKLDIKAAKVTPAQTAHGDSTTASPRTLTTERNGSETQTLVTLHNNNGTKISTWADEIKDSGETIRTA
Procedure: Surface plasmon resonance (SPR) assay. The affinity identification between P26 and TIM3 was performed by immobilizing the TIM3 protein (50 μg/mL) on the surface of the nanogold sensor chip after the chip was activated by EDC/NHS. P26/Gal-9 competition assay was performed by immobilizing Gal-9 protein (25 µg/mL) on the sensor chip. Each sample was injected at a flow rate of 20 μL/min for about 7 min. KD, ka, and kd were calculated by Trace Drawer Evaluation (version 2.0).

Compound	inhibition of MC38-hPD-L1 tumor growth vs solvent control (in words) (MC38-hPD-L1 tumor; tumor nodules on day 36, Fig. 4b, c)	tumor volume inhibition rate (MC38-hPD-L1 tumor; vs PBS control, start day 10, sacrificed day 36, Fig. 4d)	Kd (TIM3)
ATE: PD-L1 inhibitor Atezolizumab, positive group	significantly inhibit the growth	43.71%	
CC[C@H](C)[C@H](NC(=O)[C@H](Cc1c[nH]cn1)NC(=O)[C@H](CCSC)NC(=O)[C@@H](NC(=O)[C@@H](NC(=O)[C@H](CC(C)C)NC(=O)[C@@H]1CCCN1C(=O)[C@@H](NC(=O)[C@H](CC(C)C)NC(=O)CN)[C@@H](C)CC)[C@@H](C)O)[C@@H](C)O)C(=O)NCC(=O)N[C@@H](CCCCN)C(=O)O [Peptide P26] (H-GLIPLTTMHIGK-OH)			34.4 µM
